Tested on: NOMO1
Assay: cell viability relative to DMSO control; higher = less cytotoxic
Details: 48 h
How it was run: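 NOMO1 or SEM cells were plated at 500 cells/well and P12-Ichikawa cells at 1000 cells/well in 1536-well plates (5 μl), after each leukemia line had been adapted for at least four passages in each medium. Pin dosing delivered library compounds in DMSO at 11 threefold concentrations, 47 μM to 0.79 nM. CellTiter-Glo One luminescence was read after 48 h at 37°C. Viability is reported as a per-plate percentage of DMSO wells, with cell-free wells as background.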

[1] = HPLM + 10% dialyzed FBS, 0.000781 µM
[2] = HPLM + 10% dialyzed FBS, 0.00234 µM
[3] = HPLM + 10% dialyzed FBS, 0.00702 µM
[4] = HPLM + 10% dialyzed FBS, 0.0211 µM
[5] = HPLM + 10% dialyzed FBS, 0.0632 µM
[6] = HPLM + 10% dialyzed FBS, 0.19 µM
[7] = HPLM + 10% dialyzed FBS, 0.569 µM
[8] = HPLM + 10% dialyzed FBS, 1.71 µM
[9] = HPLM + 10% dialyzed FBS, 5.12 µM
[10] = HPLM + 10% dialyzed FBS, 15.4 µM
[11] = HPLM + 10% dialyzed FBS, 46.1 µM
[12] = RPMI 5 mM glucose + 10% FBS, 0.000781 µM
[13] = RPMI 5 mM glucose + 10% FBS, 0.00234 µM
[14] = RPMI 5 mM glucose + 10% FBS, 0.00702 µM
[15] = RPMI 5 mM glucose + 10% FBS, 0.0211 µM
[16] = RPMI 5 mM glucose + 10% FBS, 0.0632 µM
[17] = RPMI 5 mM glucose + 10% FBS, 0.19 µM
[18] = RPMI 5 mM glucose + 10% FBS, 0.569 µM
[19] = RPMI 5 mM glucose + 10% FBS, 1.71 µM
[20] = RPMI 5 mM glucose + 10% FBS, 5.12 µM
[21] = RPMI 5 mM glucose + 10% FBS, 15.4 µM
[22] = RPMI 5 mM glucose + 10% FBS, 46.1 µM
[23] = RPMI 5 mM glucose + 10% dialyzed FBS, 0.000781 µM
[24] = RPMI 5 mM glucose + 10% dialyzed FBS, 0.00234 µM
[25] = RPMI 5 mM glucose + 10% dialyzed FBS, 0.00702 µM
[26] = RPMI 5 mM glucose + 10% dialyzed FBS, 0.0211 µM
[27] = RPMI 5 mM glucose + 10% dialyzed FBS, 0.0632 µM
[28] = RPMI 5 mM glucose + 10% dialyzed FBS, 0.19 µM
[29] = RPMI 5 mM glucose + 10% dialyzed FBS, 0.569 µM
[30] = RPMI 5 mM glucose + 10% dialyzed FBS, 1.71 µM
[31] = RPMI 5 mM glucose + 10% dialyzed FBS, 5.12 µM
[32] = RPMI 5 mM glucose + 10% dialyzed FBS, 15.4 µM
[33] = RPMI 5 mM glucose + 10% dialyzed FBS, 46.1 µM

Compound | cell viability [1] | cell viability [2] | cell viability [3] | cell viability [4] | cell viability [5] | cell viability [6] | cell viability [7] | cell viability [8] | cell viability [9] | cell viability [10] | cell viability [11] | cell viability [12] | cell viability [13] | cell viability [14] | cell viability [15] | cell viability [16] | cell viability [17] | cell viability [18] | cell viability [19] | cell viability [20] | cell viability [21] | cell viability [22] | cell viability [23] | cell viability [24] | cell viability [25] | cell viability [26] | cell viability [27] | cell viability [28] | cell viability [29] | cell viability [30] | cell viability [31] | cell viability [32] | cell viability [33]
CC(C)C(C)/C=C/C(C)C1CCC2C3=CC=C4CC(O)CCC4(C)C3CCC21C (stereo not drawn) | 104% | 101% | 115% | 111% | 104% | 99.8% | 112% | 106% | 111% | 110% | 94.8% | 86.5% | 97.2% | 90.6% | 88.4% | 96.7% | 88.6% | 89.9% | 92% | 85.1% | 83% | 82.7% | 99.1% | 88.7% | 92.4% | 89.8% | 99.7% | 104% | 94.6% | 97.7% | 86.4% | 81.6% | 90.4%
CN[S+](=O)([O-])Cc1ccc2[nH]cc(CCN(C)C)c2c1 | 116% | 124% | 118% | 124% | 130% | 130% | 148% | 136% | 128% | 135% | 122% | 106% | 124% | 110% | 118% | 110% | 120% | 117% | 109% | 129% | 139% | 111% | 113% | 118% | 114% | 122% | 118% | 123% | 122% | 120% | 118% | 129% | 129%
COc1cc2c(cc1-c1c(C)noc1C)ncc1[nH]c(=O)n([C@H](C)c3ccccn3)c12 |  |  |  |  |  |  |  |  |  |  |  | 122% | 110% | 114% | 115% | 111% | 99.8% | 108% | 98.2% | 30.8% | 30.5% | 22% | 114% | 124% | 98.3% | 118% | 124% | 117% | 118% | 102% | 30.1% | 35.6% | 22.7%
CNC1CCC(N(Cc2cccc(-c3ccncc3)c2)C(=O)c2sc3ccccc3c2Cl)CC1 (stereo not drawn) | 74.1% | 92.9% | 104% | 113% | 107% | 99% | 101% | 36.1% | 6.61% | 7.33% | 1.5% | 90.8% | 85.3% | 85.5% | 93% | 86% | 90.6% | 92.4% | 87.7% | 11.3% | 5.87% | 1.62% | 79.3% | 88.3% | 93.2% | 87% | 84.7% | 97.8% | 95.9% | 102% | 55% | 60.4% | 1.53%
CC(=O)Nc1ccc(OC[C@](C)(O)C(=O)Nc2ccc([N+](=O)[O-])c(C(F)(F)F)c2)cc1 | 66.3% | 68.2% | 72.9% | 70.6% | 87.7% | 80.2% | 88.4% | 83.5% | 83.4% | 77.8% | 82.4% | 70.5% | 76.9% | 75.4% | 82.8% | 87% | 83% | 82.8% | 88.2% | 76.2% | 86.9% | 82.2% | 72% | 78.1% | 87.3% | 83.1% | 92.7% | 86.1% | 85.1% | 85.6% | 85.2% | 92.5% | 78%
OC1=CC=C(C=C1)\C2=C\OC3=C(C=CC(=C3)O)C2=O | 97.3% | 92.8% | 102% | 119% | 118% | 99.6% | 105% | 106% | 104% | 93.9% | 99.6% | 93.1% | 91.6% | 89% | 93.4% | 119% | 96.2% | 92.4% | 86.8% | 103% | 100% | 94.2% | 98.8% | 108% | 84.2% | 107% | 112% | 96.1% | 105% | 96.6% | 102% | 89% | 94.5%
CC(=O)O.Cc1c(-c2ccc(O)cc2)n(Cc2ccc(OCCN3CCCCCC3)cc2)c2ccc(O)cc12 | 95.5% | 106% | 92.7% | 95.6% | 89.6% | 102% | 111% | 103% | 106% | 94.1% | 92.5% | 86.3% | 103% | 92.3% | 92.7% | 88.5% | 105% | 92.3% | 87.5% | 96.5% | 93.9% | 88.6% | 97.5% | 97.9% | 91.4% | 96% | 99.2% | 107% | 103% | 98.1% | 102% | 101% | 86.7%
c1cncc(CN2CCC(n3ncc4c(N5CCOCC5)nc(-c5ccc6[nH]ccc6c5)nc43)CC2)c1 | 92.1% | 107% | 92.5% | 94.8% | 84.4% | 89.1% | 78.6% | 72.7% | 60.1% | 44% | 35% | 88.4% | 80.4% | 88.1% | 92.7% | 87.8% | 82.2% | 83.6% | 82.8% | 80.5% | 49.3% | 15.7% | 87.3% | 83.9% | 96.4% | 97.7% | 86.2% | 85.2% | 69.2% | 70.4% | 71.2% | 46.6% | 20%
CC/C(=C(/c1ccc(O)cc1)c1ccc(OCCNC)cc1)c1ccccc1 | 99.4% | 98.4% | 98% | 103% | 106% | 130% | 113% | 123% | 90.8% | 75.9% | 47.1% | 102% | 97.2% | 120% | 108% | 114% | 97.9% | 117% | 122% | 108% | 100% | 45.8% | 103% | 99.7% | 102% | 115% | 101% | 106% | 111% | 104% | 96.2% | 84.3% | 55.6%
CCCCCOC(=O)NC\1=N\C(=O)N(\C=C1F)[C@@H]2O[C@H](C)[C@@H](O)[C@H]2O | 114% | 111% | 97% | 99.7% | 95.6% | 106% | 92.9% | 98.7% | 93.8% | 72.8% | 81.4% | 90.8% | 92.6% | 97.9% | 90.8% | 90.7% | 102% | 91.2% | 87.9% | 86.4% | 85% | 83.3% | 99.2% | 105% | 106% | 105% | 103% | 99.4% | 101% | 109% | 92% | 73.8% | 92.5%
CC(=O)Oc1ccccc1C(=O)O | 106% | 107% | 104% | 105% | 115% | 107% | 107% | 99.2% | 88% | 98.9% | 103% | 93.8% | 95.9% | 92.9% | 88.4% | 97.9% | 87.4% | 95.2% | 106% | 88.3% | 101% | 90.4% | 97.7% | 104% | 106% | 109% | 110% | 93.4% | 91.8% | 105% | 88.4% | 94.9% | 96.6%
CC1(C)Cc2c(-c3ccccc3)c(-c3ccc(Cl)cc3)c(CC(=O)O)n2C1 | 115% | 106% | 130% | 131% | 111% | 120% | 128% | 106% | 108% | 99.5% | 90.6% | 102% | 123% | 118% | 124% | 119% | 115% | 112% | 101% | 99% | 111% | 96.8% | 110% | 114% | 105% | 115% | 117% | 113% | 114% | 106% | 105% | 91.8% | 89.2%
CO[C@H]1/C=C/O[C@@]2(C)Oc3c(C)c(O)c4c(O)c(c5c(nc6cc(C)ccn65)c4c3C2=O)NC(=O)/C(C)=C\C=C\[C@H](C)[C@H](O)[C@@H](C)[C@@H](O)[C@@H](C)[C@H](OC(C)=O)[C@@H]1C | 104% | 119% | 112% | 96.1% | 116% | 110% | 96% | 93.8% | 35.5% | 91.7% | 11.1% | 107% | 99.1% | 97.7% | 110% | 82.7% | 105% | 87.6% | 98.7% | 43.8% | 91.4% | 44.9% | 99.4% | 97.8% | 95.3% | 108% | 86.3% | 108% | 99.9% | 99.7% | 28.9% | 82.3% | 18.6%
C=C(C)[C@@H]1CC[C@]2(C(=O)O)CC[C@]3(C)[C@H](CC[C@@H]4[C@@]5(C)CC[C@H](O)C(C)(C)[C@@H]5CC[C@]43C)[C@@H]12 | 115% | 124% | 107% | 123% | 119% | 110% | 118% | 105% | 102% | 94.6% | 95.7% | 116% | 118% | 121% | 111% | 115% | 111% | 119% | 113% | 111% | 114% | 97.1% |  |  |  |  |  |  |  |  |  |  | 
COC1=CC=CC2=C1C(=NC(=N2)C3=CC=CS3)NN4C(=O)\C=C(C)/C4=O | 95.7% | 103% | 94% | 87.7% | 77.6% | 60.3% | 44.1% | 38.2% | 8.17% | 1.91% | 2.25% | 90% | 88.4% | 92.9% | 84.8% | 92.3% | 78.2% | 56.2% | 48.2% | 14.4% | 3.32% | 4.06% | 81.1% | 85.3% | 94.5% | 82.4% | 74.6% | 68.8% | 50.4% | 38.9% | 16.9% | 4.27% | 2.63%

— the supplement of paper PMC11451515
